“Also recorded” adds a separate entry of the source. Where two headings read alike, the source gives them in different places.
Key:
A549 cells = assay: Viability studies (trypan blue staining and cell counting) with or without IR excitation; format: cell-based, human; conditions: for IC50: linear regression analysis; for Phototoxicity with IR excitation, in words: IR (850 nm) excitation; for Toxicity in words, dark and light: with or without IR (850 nm) excitation; for Toxicity in the dark, in words: without IR excitation
Method: The cell lines human lung carcinoma (A549), metastatic human melanoma (WM1158) and Vemurafenib-resistant melanoma (Sk-Mel-28-Vem^R) are used. Sk-Mel-28-Vem^R is generated by culturing a parental melanoma cell lines in the presence of 2 μM Vemurafenib for 2 months. Acquired Vemurafenib resistance is defined by >1 log change in IC50 between nonresistant and resistant cell lines. Resistance is maintained through media supplementation with 2 μM Vemurafenib, which is changed every 48 hours. All cells are cultured in DMEM without pyruvate with 10% heat inactivated fetal bovine serum supplemented with glutamine and penicillin/streptomycin, and incubated in 37° C. with 5% CO2.
A549 and WM1158 cells are seeded at a density of 50,000 cells per well in 6-well tissue culture plates. After 24 hours of incubation, media is aspirated and replaced with media containing luminescent dyes at indicated concentrations. Each well is irradiated with an 850 nm LED lamp with an illumination rate of 526 mW/cm^2 for an hour in the incubator, and control cells are left in a dark incubator without irradiation. For studies with Cy7, a 740 nm LED lamp is used instead of an 850 nm, but with a similar illumination flux. Immediately after irradiation, the media is replenished with fresh dye-laced media and allowed to incubate for another 24 hours. […] Viable cell number is determined at 24 and 96 hours using trypan blue staining and a Nexcelom Cellometer Auto T4 cell counter. All assays are done with 3 biological replicates. The fold change in cell proliferation over days of treatment was calculated using the following equation.

[1] = Salt integrity and aggregation in cell media (mass spectrometry, electron microscopy, UV-Vis); format: physicochemical; conditions: for Integrity of salt pairing in cellular environments: high resolution mass spectrometry, electron microscopy, UV-Vis spectroscopy
Text: FIGS. 7A-7C. […] Organic salts were first dissolved in DMSO and then diluted in water, forming nanoparticles. […] Combinations of H- and J-aggregation of organic salts can be seen by blue-shifted peaks (lower wavelength) and red-shifted peaks (higher wavelength), respectively. The nanoparticles with small hard anions redissolve in cell media likely due to sterics. […] This is achieved by cation-anion pairs of luminescent organic salts that can be modulated to be either non-toxic for enhanced imaging, or phototoxic for improved PDT. […] IR polymethine cyanine dyes, which have been used as effective theranostics are described. […] This is thought to occur through a mechanism mitigated by tumor vascularization, increased retention in cancer cells, and mitochondrial depolarization. Once in the cell, they accumulate in the mitochondria and lysosomes, where irradiation induces generation of cytotoxic oxygen species. A strategy is described for preventing or inhibiting salt dissociation in cells: aggregates are formed via introduction of the salt into an aqueous media by a solvent vehicle, forming particles with diameters of about 5 nm in size with no precipitation observed. […] This is confirmed by high resolution mass spectrometry, electron microscopy, and UV-Vis spectroscopy. […] Normalized absorption data are sown in FIGS. 7A, 7B, and 7C. This is likely due to steric effects, where if the counterion radius is too small it is not able to protect the nanoparticle stability. This can be characterized by the volume-averaged effective spherical radius of the counterions, where the cutoff is at about 0.275 nm.

mitochondrial superoxide = assay: MitoSOX measurement of mitochondrial superoxide; format: cell-based, human; conditions: A549 cells treated 4 days at phototoxic concentrations; with or without light
Text: FIG. 22. Luminescent organic salts generate mitochondrial ROS. […] MitoSOX is used to measure mitochondrial superoxide, and H2DCFDA for general cytoplasmic ROS in A549 cell treated with organic salts at indicated phototoxic concentrations for 4 days.
Photoactive agents accumulate in the mitochondria of cancer cells and generate reactive oxygen species (ROS) with light exposure, depolarizing the mitochondrial membrane potential to cause cell death. Small molecule protective agents that quench ROS have been used to decrease their phototoxicity. However, the exact type of ROS generated by each luminescent agent remains unclear. Photo-induced ROS include singlet oxygen, superoxide radical anion, hydrogen peroxide, hydroxyl radical and others (see FIG. 21). Superoxide is a highly reactive and biologically toxic species deployed in nature to kill invading organisms. It is often formed as a byproduct of mitochondrial respiration but is typically quenched by the highly efficient superoxide dismutase. Hydroxyl radicals are also highly reactive, damaging nearly all forms of biological molecules. Unlike superoxide radical, the hydroxyl radical cannot be easily quenched naturally via enzymes, and endogenous antioxidants are typically required. Singlet oxygen is the excited state of the common triplet oxygen (O2 ground state) and is highly reactive towards organic compounds. Singlet oxygen can be eliminated in mammalian systems by antioxidants. A range of nitroxy radicals can subsequently stem from superoxide (peroxynitrite) or peroxide (nitrogen dioxide) species. […] Each luminescent cation-anion pair generates specific ROS resonant with its own energy level, and cell types can be targeted by generating the key sensitizing ROS. For example, it is expected that CyFPhB is phototoxic (see FIGS. 11A and 11B and 12A and 12B) by generating reactive oxygen species, which can be resonant with its molecular orbital energy levels (FIG. 21). […] No cytoplasmic ROS is detected using general cytoplasmic ROS probe H2DCFDA. […]

[2] = Absorption and emission spectra; format: physicochemical
Method: FIGS. 8A-8F. Non-toxic cation-anion pair enhances live cell IR fluorescence imaging. FIG. 8A is a graph showing tunable organic salts absorb and emit in the IR (700-1200 nm) and eliminate background noise from absorbance/emission tissue components such as melanin, water, oxyhemoglobin (Hb-O2) and hemoglobin (Hb). […] A549 cells were incubated with vehicle, 1 μM CyPF6, or 1 μM CyTPFB with or without IR (850 nm) excitation. Cell viability determined by trypan blue staining and cell counting. (D) CyTPFB staining in A549 cells. (E) DNA staining using 4',6-diamidino-2-phenylindole (DAPI). (F) Superimposed CyTPFB+DAPI staining. Effective fluorescence dyes must be non-toxic for live cell imaging. […] Further developed are luminescent dyes that absorb and emit in the optical tissue window for imaging without background absorption/emission from components of tissue such as water, hemoglobin, and melanin, as shown in FIG. 8A. Heptamethine cyanine (Cy^+) is a photoactive cation that absorbs and emits in IR wavelengths, with an excitation/emission maximum of 830/848 nm, as shown in FIG. 8B. The deeper excitation and emission of Cy^+ provide an advantage over Cy7 (excitation/emission maximum of 750/773 nm), allowing imaging at greater tissue depths. […] Imaging live cells with these toxic cation-anion pairs requires usage of low doses that result in low absorbance and emission, resulting in poor quality images. […] CyTPFB is non-toxic to cells even at greater than 20-fold higher concentrations of 20 μM. The non-toxic nature of CyTPBF allows use of high doses in eukaryotic and prokaryotic cells for enhanced IR imaging with greater brightness, as shown in FIGS. 8D-8F for a eukaryotic cell example.

[3] = A549 cells, 850 nm irradiation, read-out: IC50 850 nm
[4] = A549 cells, dark, no irradiation, read-out: IC50 Dark

| SMILES | IC50 (A549 cells; [3]) | IC50 (A549 cells; [4]) | Toxicity in words, dark and light (A549 cells; A549 cells) | Toxicity in the dark, in words (A549 cells; A549 cells) | Integrity of salt pairing in cellular environments [1] | Emission maximum [2] | Excitation maximum [2] | also measured |
| --- | --- | --- | --- | --- | --- | --- | --- | --- |
| CCN1C(=CC=C2CCCC(C=CC3=[N+](CC)c4ccc5ccccc5c4C3(C)C)=C2Cl)C(C)(C)c2c1ccc1ccccc21.Fc1ccc([B-](c2ccc(F)cc2)(c2ccc(F)cc2)c2ccc(F)cc2)cc1 [CyFPhB] | 3.5 µM | 46 µM | phototoxic but not cytotoxic; also recorded: phototoxic (but not cytotoxic) | allow cell growth in the dark | maintained in cellular environments |  |  | Phototoxicity with IR excitation, in words (A549 cells; A549 cells): most phototoxic; also recorded: cause significant cell death with IR excitation; also recorded: highly phototoxic; Phototoxicity with IR excitation, in words (A549 cells; A549 cells, listed as Cy^+ paired with FPhB): phototoxic; Toxicity in the dark, in words (A549 cells; A549 cells, listed as Cy^+ paired with FPhB^−): deactivates the dark cellular toxicity; Aggregation / nanoparticle behaviour in cell media, in words ([1]; cell media): forms small photoactive nanoparticles in cell media; Average nanoparticle size in cell media ([1]; cell media): < 10 nm; Mitochondrial superoxide / ROS generation (MitoSOX), in words (mitochondrial superoxide): photo-generating ROS only with illumination; also recorded: photo-generating superoxide only with illumination |
| CCN1C(=CC=C2CCCC(C=CC3=[N+](CC)c4ccc5ccccc5c4C3(C)C)=C2Cl)C(C)(C)c2c1ccc1ccccc21.FC(F)(F)c1cc([B-](c2cc(C(F)(F)F)cc(C(F)(F)F)c2)(c2cc(C(F)(F)F)cc(C(F)(F)F)c2)c2cc(C(F)(F)F)cc(C(F)(F)F)c2)cc(C(F)(F)F)c1 [CyTFM] | 29 µM | 125 µM | not toxic to cells in the dark and in the light | deactivates the dark cellular toxicity | maintained in cellular environments |  |  |  |
| CCN1C(=CC=C2CCCC(C=CC3=[N+](CC)c4ccc5ccccc5c4C3(C)C)=C2Cl)C(C)(C)c2c1ccc1ccccc21 [Cy^+, 2-[2-[2-chloro-3-[2-(1,3-dihydro-3,3-dimethyl-1-ethyl-2H-benz[e]indol-2-ylidene)ethylidene]-1-cylohexen-1-yl]-ethenyl]-3,3-dimethyl-1-ethyl-1H-benz[e]indolium] |  |  |  |  |  | 848 nm | 830 nm |  |
| C[N+]1=C(C=CC2=CC(=CC=C3N(CCCCCC(=O)ON4C(=O)CCC4=O)c4ccccc4C3(C)C)CCC2)C(C)(C)c2ccccc21.[Cl-] [Cy7, Cyanine7 NHS ester, reference compound] |  |  |  |  |  | 773 nm | 750 nm | Toxicity of Cy7 salts, in words (A549 cells; A549 cells, with or without IR (740 nm) excitation): highly cytotoxic; Concentration at which cytotoxic (A549 cells; cells, toxic at low concentration, even without IR light): 1000 nM |
| [I-].[K+] [KI, reference compound] |  |  | not toxic; also recorded: does not cause toxicity in the dark or with light |  |  |  |  |  |
| CCN1C(=CC=C2CCCC(C=CC3=[N+](CC)c4ccc5ccccc5c4C3(C)C)=C2Cl)C(C)(C)c2c1ccc1ccccc21.Clc1c(Cl)c(Cl)c2c(c1Cl)O[P-]13(O2)(Oc2c(Cl)c(Cl)c(Cl)c(Cl)c2O1)Oc1c(Cl)c(Cl)c(Cl)c(Cl)c1O3 [CyTRIS] | 1200 µM | 1220 µM | not toxic to cells in the dark and in the light | deactivates the dark cellular toxicity | maintained in cellular environments |  |  |  |
